From US7972793B2, “Methods and compositions for the treatment of psychotic disorders through the identification of the SULT4A1-1 haplotype” (Suregene, LLC, priority 2009, dated 2011)
Where two headings read alike, the source gives them in different places. Marks after values point to notes of the source that are not given here.

What was measured:
[1] = tested on: patients, unsegmented populations; conditions: Meta-analysis, Leucht et al. (2009); cited from earlier work
[2] = tested on: CATIE Phase I non-responders; conditions: CATIE Phase II, LOCF; for Responders (number): decrease PANSS ≧ 20%
[3] = tested on: patients, unsegmented populations; conditions: first generation antipsychotics; Davis et al. (2003); cited from earlier work
[4] = tested on: patients, populations not segmented by SULT4A1-1 status; conditions: meta-analysis, Leucht et al. (2009); negative = greater reduction in PANSS; cited from earlier work
[5] = tested on: CATIE patients with schizophrenia of European ancestry; test: CATIE Phase I percent change of PANSS from baseline (LOCF), linear model with haplotype and drug therapy; type: in vivo, human; conditions: Table 18
Source text: Genotype and phenotype data for the CATIE trial were recently made available to qualified researchers through The NIMH Center for Collaborative Genetic Studies on Mental Disorders. The inventors evaluated data for 417 CATIE patients with schizophrenia self reported as having exclusively European ancestry. This same patient population was described in a recent study by Sullivan and coworkers, which confirmed that there is no hidden stratification in the sample (Sullivan et al., 2008).
The CATIE clinical data set included baseline PANSS scores based on clinical assessments prior to initiation of the assigned therapy, but following the washout period for any patients previously on antipsychotic medication. Follow up PANSS data for the CATIE trial were collected at each visit as described in detail by others (Stroup et al., 2003). Briefly, the first visit was after one month of treatment, and subsequent visits were at somewhat irregular intervals of approximately three months for up to a total 18 months or until discontinuation of treatment, whichever came first.
For all subsequent analyses, the inventors focused on the single haplotype, designated SULT4A1-1. EM algorithm haplotypes were assigned to each patient using HelixTree software (Version 6.4.1; Golden Helix, Bozeman, Mont.), and each individual was scored as being positive or negative for the presence of the haplotype. The inventors assigned SULT4A1-1 haplotype status to those individuals for which EM algorithm assignment could be made with error probabilities of <1%. This included a total of 395 patients from the CATIE study. With the exception of four of the 395 patients in the CATIE study, SULT4A1-1 haplotype status could be assigned with error probabilities of <1×10-5.
Since follow-up on subjects was not done at uniform time intervals, analysis was done using the last observation for each patient in treatment Phase I of the trial as the measure of response (last observation carried forward, LOCF). Main effect and interaction terms between the SULT4A1-1 haplotype and drug therapy were included in the linear model. A pre-determined set of contrasts for differences in percent change PANSS by haplotype within each drug therapy (three comparisons) and by drug therapy within each haplotype (six comparisons) were evaluated, with adjustment for multiple-comparisons using the step-up false-discovery rate (FDR) controlling procedure (Benjamini and Hochberg, 1995). A sub-analysis omitting those patients who were randomized to the same antipsychotic drug therapy was also conducted. […]

CATIE patients = test: Kaplan-Meier survival (no hospitalization event) analysis, SULT4A1-1 negative vs positive; type: in vivo, human; conditions: FIG. 8
Experimental: A Kaplan-Meier survival analysis was performed to determine whether there was a difference between the survival (hospitalization) rates for the SULT4A1-1 negative and SULT4A1-1 positive patient populations treated with each of the atypical antipsychotics. Survival plots model the fraction of the population that survived (i.e., no hospitalization event) as a function of time.

[6] = tested on: CATIE African American schizophrenia patients; test: CATIE drug response: change in total PANSS (LOCF), segmented by SULT4A1-1 status, African Americans; type: in vivo, human
Experimental: The design of the CATIE study has been described in detail by others (Lieberman et al., 2005; Stroup et al., 2003). […] A total of 738 subjects consented to provide DNA for genetic study. […] Retrospective genetic analyses, judged to be exempt from human studies requirements by an IRB, were conducted in the current study. All tested patients were studied using well established clinical endpoints comparing baseline, intermediate, and last observation carried forward (LOCF) for the PANSS scores using CATIE data. […] To remove time on drug as a variable for the CATIE trial, analysis was limited to only those patients who were randomized to a different drug following the initial washout period (drug switchers).

[7] = tested on: CATIE Caucasian schizophrenia patients; test: Time to discontinuation for all causes in the CATIE study; type: in vivo, human; conditions: SULT4A1-1 Negative
Source text: The primary endpoint for the CATIE study was time to discontinuation for all causes (Lieberman et al., 2005). Thus the inventors evaluated the effect of SULT41-1 status on this important parameter.

OCCOCCN1CCN(C2=Nc3ccccc3Sc3ccccc32)CC1 [Quetiapine]
Mean Difference in Total PANSS Score, Olanzapine vs. labelled drug [1]: −3.7
Nonresponders (number) ([2]; SULT4A1-1 Negative): 10
Responders (number) ([2]; SULT4A1-1 Negative): 1
Nonresponders (number) ([2]; SULT4A1-1 Positive): 1
Responders (number) ([2]; SULT4A1-1 Positive): 0
Effect Size vs. FGA [3]: 0.01
Effect Size vs. Placebo [4]: −0.42
Difference in percent change in PANSS score ([5]; Complete Sample, SULT4A1-1+ patients, labelled drug vs Risperidone): −1.0%
Difference in percent change in PANSS score ([5]; Complete Sample, same drug, SULT4A1-1+ vs SULT4A1-1−): −5.4%
Difference in percent change in PANSS score ([5]; Patients Randomized to a Different Medication, SULT4A1-1+ patients, labelled drug vs Risperidone): −4.6%
Difference in percent change in PANSS score ([5]; Patients Randomized to a Different Medication, same drug, SULT4A1-1+ vs SULT4A1-1−): −6.8%
Difference between survival (no hospitalization) rates of SULT4A1-1 negative and SULT4A1-1 positive patients (CATIE patients): significant difference
≦−20% (number of individuals; responders) ([6]; SULT4A1-1 Negative): 9
≧−20% (number of individuals; non-responders) ([6]; SULT4A1-1 Negative): 25
≦−20% (number of individuals; responders) ([6]; SULT4A1-1 Positive): 2
≧−20% (number of individuals; non-responders) ([6]; SULT4A1-1 Positive): 4
Time to discontinuation, mean time in months [7]: 8.6*** Months
